Biological target: T1, human calcium receptor (Homo sapiens, UniProt P41180)
T1 construct: expressed in transfected cells; host or cells: Xenopus laevis oocytes injected with cRNA
T1 sequence (P41180 20-1078): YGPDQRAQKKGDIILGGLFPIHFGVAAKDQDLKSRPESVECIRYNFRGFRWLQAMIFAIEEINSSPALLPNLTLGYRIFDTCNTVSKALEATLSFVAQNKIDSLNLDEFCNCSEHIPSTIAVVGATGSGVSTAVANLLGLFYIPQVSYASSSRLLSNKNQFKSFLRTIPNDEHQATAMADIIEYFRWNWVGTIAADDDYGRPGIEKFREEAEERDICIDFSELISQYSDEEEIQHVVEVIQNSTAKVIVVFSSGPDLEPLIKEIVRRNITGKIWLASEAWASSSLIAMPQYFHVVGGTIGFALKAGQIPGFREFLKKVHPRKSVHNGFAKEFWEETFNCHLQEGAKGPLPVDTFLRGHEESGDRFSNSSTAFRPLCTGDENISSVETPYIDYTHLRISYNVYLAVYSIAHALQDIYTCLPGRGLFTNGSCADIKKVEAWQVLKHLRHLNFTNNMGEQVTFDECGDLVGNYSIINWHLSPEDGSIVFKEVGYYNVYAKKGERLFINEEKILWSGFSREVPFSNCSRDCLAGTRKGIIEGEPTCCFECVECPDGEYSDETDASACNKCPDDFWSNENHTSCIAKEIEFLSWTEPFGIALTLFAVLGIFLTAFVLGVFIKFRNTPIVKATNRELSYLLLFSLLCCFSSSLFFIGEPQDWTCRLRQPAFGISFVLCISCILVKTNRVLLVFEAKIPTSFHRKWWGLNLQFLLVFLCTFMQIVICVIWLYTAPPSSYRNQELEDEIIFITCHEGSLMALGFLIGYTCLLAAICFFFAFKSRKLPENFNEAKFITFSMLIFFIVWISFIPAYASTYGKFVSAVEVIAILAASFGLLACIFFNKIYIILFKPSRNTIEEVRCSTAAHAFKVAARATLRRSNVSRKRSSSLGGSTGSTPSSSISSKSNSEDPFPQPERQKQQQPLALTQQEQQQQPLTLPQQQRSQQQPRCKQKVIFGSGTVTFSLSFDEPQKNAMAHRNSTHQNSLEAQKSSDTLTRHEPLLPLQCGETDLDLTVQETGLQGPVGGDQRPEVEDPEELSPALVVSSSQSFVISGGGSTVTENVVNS
Assay: Ca ion concentration-dependent Cl ionic current measurement in Xenopus laevis oocytes expressing the calcium receptor
Format: cell-based
Conditions: peptide added at 50 μM
Description: For evaluation of the calcium receptor-activating action, a Ca ion concentration-dependent Cl ionic current measuring method using a Xenopus laevis oocyte expression system was used. If each activator is added to Xenopus laevis oocytes expressing the calcium receptor, intracellular Ca ions increase. Then, the Ca ion concentration-dependent Cl channel opens, and the intracellular current value changes as an ionic current. By measuring the change in the intracellular current value, whether the calcium receptor-activating action is present or not can be determined.
Specifically, the abdomen of Xenopus laevis was opened, and an egg batch was taken out and then treated with a 1% collagenase solution at 20° C. for 2 hours to obtain individual oocytes. Into the oocytes, 50 nl of 1 μg/μl receptor cRNA or 50 nl of sterilized water per oocyte were injected by using a micro glass capillary, and the oocytes were cultured at 18° C. for 2 to 3 days. For the culture, a solution obtained by adding 2 mM pyruvic acid, 10 U/ml penicillin, and 10 μg/ml streptomycin to the solution in Example 2 was used. After the culture, a test solution was added to the oocytes injected with cRNA or sterilized water. Electrophysiological measurement was performed by using an amplifier Geneclamp 500 (manufactured by Axon) and recording software AxoScope 9.0 (manufactured by Axon). The oocytes were membrane potential-clamped at −70 mV by the double electrode potential clamp method, and the intracellular current was measured via the Ca ion concentration-dependent Cl ion channel. The maximum value of the intracellular current was defined as the response current value. […]
The calcium receptor-activating action of L-amino acids was evaluated by using the method described in Example 13. That is, oocytes injected with cRNA of the calcium receptor or sterilized water were prepared, and membrane potential-clamped at −70 mV by the double electrode potential clamp method. To the potential-clamped oocytes, alanine (10 mM), arginine (10 mM), asparagine (10 mM), aspartic acid (10 mM), cysteine (10 mM), glutamine (10 mM), glutamic acid (10 mM), glycine (10 mM), histidine (10 mM), isoleucine (10 mM), leucine (10 mM), lysine (10 mM), methionine (10 mM), phenylalanine (10 mM), proline (10 mM), serine (10 mM), threonine (10 mM), tryptophan (10 mM), tyrosine (10 mM), valine (10 mM), ornithine (10 mM), taurine (10 mM), or hydroxyproline (10 mM) was added, and Ca ion concentration-dependent Cl response current was measured. […] As for the above-described amino acids, the activating action is reported in Proc. Natl. Acad. Sci. USA, Apr. 25, 2000, 97(9): 4814-9.
The calcium receptor-activating action of D-cysteine was evaluated by using the method described in Example 13. That is, oocytes injected with cRNA of the calcium receptor or sterilized water were prepared, and membrane potential-clamped at −70 mV by the double electrode potential clamp method. To the potential-clamped oocytes, D-cysteine (10 mM), L-cysteine (10 mM), D-tryptophan (10 mM), or L-tryptophan (10 mM) was added, and Ca ion concentration-dependent Cl response current was measured.
The calcium receptor-activating action of a peptide was evaluated by using the method described in Example 13. That is, oocytes injected with cRNA of the calcium receptor or sterilized water were prepared, and membrane potential-clamped at −70 mV by the double electrode potential clamp method.

N[C@@H](CCC(=O)N[C@@H](CS)C(=O)NCC(=O)O)C(=O)O [γ-Glu-Cys-Gly]
calcium receptor-activating action (Ca ion concentration-dependent Cl response current): definite calcium receptor-activating action
